Holding throughout (assay type): in vitro ADME
In data set [1] the test system is CYP3A4/5. Kind of data set: CYP3A4/5 testosterone 6β-hydroxylation in human liver microsomes (HPLC). Conditions: substrate testosterone, n = 2. The protocol: (§1) Enzyme activities were assayed in human and rat liver cytosolic and microsomal fractions. The enzyme assays (each performed in 4–8 replicates) were repeated three times (HPLC measurement of CYP activities was repeated only twice, Table 3). Inhibition studies were carried out by incubation of specific substrates in the presence of sesquiterpenes (in the range 0–100 µM).
(§2) Enzyme activities of individual CYP forms were measured according to established protocols. The following microsomal CYP activities were tested: CYP2A6, coumarin 7-hydroxylation; CYP2B6, 7-ethoxy-4-(trifluoromethyl)coumarin 7-deethylation, CYP2C9, diclofenac 4′-hydroxylation, CYP2C19 assay, S-mephenytoin 4′-hydroxylation, CYP2D6 on bufuralol 1′-hydroxylation, CYP2E1, chlorzoxazone 6-hydroxylation and CYP3A4, testosterone 6β-hydroxylation, and midazolam 1′-hydroxylation. Activities were measured using the Prominence HPLC system (Shimadzu, Kyoto, Japan), equipped with a LiChroCART 250-4 LiChrospher 100 RP-18 column or Chromolith®HighResolution RP-18 end-capped column (Merck, Darmstadt, Germany) and UV or fluorescence detection, according to the cited literature. Further incubation details are described either in the corresponding references, as well as in the papers from this laboratory e.g., [42, 43, 44]. CYP1A2, 7-ethoxyresorufin O-deethylation, and CYP3A4/2B6 (human), CYP2B1 (rat), benzyloxyresorufin O-debenzylation were measured using the microplate reader Tecan Infinite M200 (Tecan Group; Mannedorf, Switzerland).
(§3) The concentration of sesquiterpenes required for 50% inhibition of enzyme activity, the IC50 value, was determined. Their final concentrations in the reaction mixture were proposed to cover the entire inhibitory range of these compounds (1–100 µM). The IC50 values for each sesquiterpene were determined by plotting sigmoidal dose response curves of specific enzyme activity vs. logarithm of sesquiterpene concentration using GraphPad Prism version 6.07 for Windows (GraphPad Software Inc., La Jolla, CA, USA).

The next data set concerns the target T1, CBR1 (Rattus norvegicus, UniProt P47727).
T1 construct: Frozen liver (both rat and human) was thawed; from tissue; host or cells: rat liver cytosolic fraction
T1 sequence (P47727 1-277): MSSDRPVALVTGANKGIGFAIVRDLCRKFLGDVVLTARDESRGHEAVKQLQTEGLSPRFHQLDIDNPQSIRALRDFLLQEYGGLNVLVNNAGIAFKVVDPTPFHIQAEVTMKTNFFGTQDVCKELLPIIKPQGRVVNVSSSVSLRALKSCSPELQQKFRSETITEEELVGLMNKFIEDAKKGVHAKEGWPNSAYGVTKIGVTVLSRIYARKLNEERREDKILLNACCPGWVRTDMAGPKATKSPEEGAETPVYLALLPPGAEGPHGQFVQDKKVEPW
Kind of data set: CBR1 activity in rat liver subcellular fraction. Conditions: 100 µM sesquiterpene, control 21.7 ± 1.6. Here is the method:
as §1
The assays of all other enzymes were based on spectrophotometric detection of product formed or detection of decreasing substrate/cofactor levels using microplate reader Tecan Infinite M200 in cytosolic or microsomal fractions. Enzyme activities were determined using slight modifications of previously-published methods: carbonyl reducing enzymes (AKR1A, AKR1C, CBR1 [45], NQO1 [46]), UDP-glucuronosyltransferase (UGT [47]), sulfotransferase (SULT [48]), and cytosolic glutathione-S-transferase (GST [49]).
(§4) Sesquiterpenes CNER, TNER and FAR, non-volatile liquids, were pipetted, and proper concentration was calculated according to density. All compounds were dissolved in DMSO. The final solvent concentration in the inhibition assays was 1%, which had no effect on the enzyme activity (data not shown). Non-enzymatic interference of sesquiterpenes with some compounds in the reaction mixtures (e.g., fluorescence enhancing or quenching) was considered and excluded. All experiments were performed in three replicates, if not stated otherwise.
(§5) CNER, TNER and FAR at a fixed concentration of 100 µM were screened for inhibition of cytosolic AKR1A1, AKR1C, CBR1, NQO1, SULT, and GST, and microsomal CYPs and UGT. The degree of inhibition caused by sesquiterpenes was compared with non-inhibited control reactions, which contained solvent without sesquiterpenes.

Data set [2] relates to CYP3A4/5. Kind of data set: CYP3A4/5 midazolam 1′-hydroxylation in human liver microsomes (HPLC). Conditions: substrate midazolam, n = 2. Here is the method:
as §1
as §2, with “Further incubation details are described either in the corresponding references, as well as in the papers from this laboratory e.g., [42, 43, 44].” left out, “Switzerland). […]” for “Switzerland).”
(In general: Liver microsomes are a subcellular fraction often used to study metabolism.)

Data set [3] concerns CYP2B/3A (CYP3A4/2B6, BROD activity). Kind of data set: CYP2B/3A (BROD activity, benzyloxyresorufin O-debenzylation) in human liver microsomes. The note with it: probe benzyloxyresorufin (O-debenzylation), 0.5-5.0 µM; human liver microsomes, BROD activity. The protocol:
as §1, §2, §4, §5, §3
(§6) The kinetic inactivation study of the CYP1A2 (EROD activity) and CYP2B/3A (BROD activity), both in rat and human, with TNER, was performed to find out the mechanism of enzyme inhibition by this sesquiterpene. Mechanism of EROD and BROD inhibition was tested at the final ethoxyresorufin or benzyloxyresorufin concentrations 0.5–5.0 µM. The concentration of TNER was 5.0 µM.
(§7) Experimental data were fitted to the Michaelis-Menten equation, basic kinetic parameters were determined using the program GraphPad Prism version 6.07 for Windows. The type of inhibition was estimated using a Lineweaver-Burk (double-reciprocal) plot.

The target in another data set is T2, CYP2C19 (Homo sapiens, UniProt P33261).
T2 construct: other CYP-mediated activities in human liver microsomes; from tissue; host or cells: human liver microsomal fraction
Kind of data set: CYP2C19 S-mephenytoin 4′-hydroxylation in human liver microsomes (HPLC). The note with it: substrate S-mephenytoin, n = 2. The protocol: as §1
as §2, with “Further incubation details are described either in the corresponding references, as well as in the papers from this laboratory e.g., [42, 43, 44].” left out, “Switzerland). […]” for “Switzerland).”

The subject of data set [4] is CYP2B/3A (CYP2B1, BROD activity). Kind of data set: CYP2B/3A (BROD activity, benzyloxyresorufin O-debenzylation) in rat liver microsomes. Conditions: probe benzyloxyresorufin (O-debenzylation), 0.5-5.0 µM; rat liver microsomes, BROD activity. Here is the method: as §1, §2, §4, §5, §3, §6, §7
Another data set addresses T3, CYP2A6 (Homo sapiens, UniProt P11509).
T3 construct: other CYP-mediated activities in human liver microsomes; from tissue; host or cells: human liver microsomal fraction
The data set is described as follows: CYP2A6 coumarin 7-hydroxylation in human liver microsomes (HPLC). Conditions: substrate coumarin, n = 2. Here is the method:
as §1
as §2, with “Further incubation details are described either in the corresponding references, as well as in the papers from this laboratory e.g., [42, 43, 44].” left out, “Switzerland). […]” for “Switzerland).”

Where [5] appears, read: human, liver microsomes, probe testosterone.

In general, IC50 refers to the midpoint of a concentration-inhibition curve. A higher IC50 goes with lower potency. In general, Ki refers to a measure of affinity in units of concentration, obtained from inhibition or displacement.

T3 sequence (P11509 whole entry): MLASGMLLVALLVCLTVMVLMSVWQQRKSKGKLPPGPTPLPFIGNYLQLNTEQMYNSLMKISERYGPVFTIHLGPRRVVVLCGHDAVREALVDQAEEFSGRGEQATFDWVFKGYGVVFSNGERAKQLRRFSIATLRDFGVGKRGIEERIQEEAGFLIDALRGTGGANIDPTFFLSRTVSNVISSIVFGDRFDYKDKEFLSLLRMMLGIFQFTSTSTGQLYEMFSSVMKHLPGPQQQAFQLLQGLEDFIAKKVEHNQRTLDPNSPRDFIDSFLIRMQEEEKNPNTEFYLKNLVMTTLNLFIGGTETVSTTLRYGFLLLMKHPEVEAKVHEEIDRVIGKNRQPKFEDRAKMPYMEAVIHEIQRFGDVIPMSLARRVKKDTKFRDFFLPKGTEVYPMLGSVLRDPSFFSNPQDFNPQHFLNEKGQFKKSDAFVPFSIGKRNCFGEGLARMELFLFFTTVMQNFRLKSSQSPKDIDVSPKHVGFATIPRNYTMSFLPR
T2 sequence (P33261 whole entry): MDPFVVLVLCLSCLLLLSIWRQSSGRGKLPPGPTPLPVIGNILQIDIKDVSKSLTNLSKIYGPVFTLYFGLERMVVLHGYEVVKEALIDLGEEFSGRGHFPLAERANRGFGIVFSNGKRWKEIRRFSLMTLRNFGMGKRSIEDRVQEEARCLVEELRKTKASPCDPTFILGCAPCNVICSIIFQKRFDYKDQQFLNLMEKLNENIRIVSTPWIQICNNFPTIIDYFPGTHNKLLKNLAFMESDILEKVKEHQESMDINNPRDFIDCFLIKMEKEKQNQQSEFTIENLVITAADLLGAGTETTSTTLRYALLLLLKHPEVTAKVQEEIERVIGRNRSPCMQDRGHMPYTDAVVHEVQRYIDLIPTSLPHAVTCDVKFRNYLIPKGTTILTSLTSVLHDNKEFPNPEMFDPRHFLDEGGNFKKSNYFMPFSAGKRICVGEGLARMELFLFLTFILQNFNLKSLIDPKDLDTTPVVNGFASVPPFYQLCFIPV

As for `C=CC(C)(O)CC/C=C(/C)CCC=C(C)C` (stereo not drawn) [CNER, cis-nerolidol], the IC50 was 186 ± 125 µM in the data set on CYP3A4/5 [1] (setting [5]); 66 µM with CYP3A4/5 [2] (human, liver microsomes, probe midazolam); 66.1 ± 30.5 µM with CYP3A4/5 [2]. The “Specific activity, CBR1” value on CBR1 is 19.5 ± 1.4 nmol/mg/min.
Regarding `C=CC(C)(O)CC/C=C(\C)CCC=C(C)C` (stereo not drawn) [TNER, trans-nerolidol], the figures for the half-maximal inhibitory concentration (IC50) in the data set on CYP3A4/5 [1] (setting [5]), in the data set on CYP3A4/5 [1] and against CYP2C19 were 51 µM, 50.5 ± 13.5 µM and 76.4 ± 52.1 µM, respectively. In addition, the inhibitory constant (Ki) in data set [3] amounted to 2410 ± 330 nM; in data set [4] it was 550 ± 110 nM. In addition, the “Specific activity, CBR1” value at CBR1 is 20.5 ± 1.6 nmol/mg/min.
`CC(C)=CCC/C(C)=C/CC/C(C)=C/CO` [FAR, farnesol]: the midpoint of inhibition on CYP2A6, the IC50, lay at 85.9 ± 22.9 µM. For the same compound, the “Specific activity, CBR1” value on CBR1 worked out at 21.1 ± 1.4 nmol/mg/min.

Source of the values: PMC6154719 (Molecules : A Journal of Synthetic Chemistry and Natural …, 2017).
